Measurements published in US20170306047A1, “PHARMACEUTICAL COMPOSITION FOR CANCER PREVENTION AND TREATMENT, CONTAINING NDRG3 EXPRESSION OR ACTIVITY INHIBITOR AS ACTIVE INGREDIENT, OR NDRG3 PROTEIN-SPECIFIC ANTIBODY AND USE THEREOF” (KOREA RESEARCH INSTITUTE OF BIOSCIENCE AND BIOTECHNOLOGY, priority 2014, published 2017).
Where a SMILES comes first, the peptide text is derived from it. The star is where a group is joined. Cbz = O=C(OCc1ccccc1)*

Key:
[1] = tested on: NDRG3 protein in NDRG3-overexpressing HeLa cells; assay: In vivo ubiquitination assay of NDRG3 under proteasome inhibition; format: cell-based; conditions: 20 μM for 8 hours, normoxic condition
Procedure: Specifically, a vector for transfection (an MSCV retroviral system) was constructed using a full-length NDRG3 cDNA (SEQ ID NO: 1) and a pMSCVneo retroviral vector (Clontech). To construct the viral vector, a GP293 cell line was transfected using lipofectamine (Invitrogen). After 48 hours, HeLa cells were treated with a cell supernatant containing NDRG3-retroviruses or control-retroviruses together with 6 μg/ml of polybrene for 24 hours. Then, the cells in which the NDRG3 was overexpressed were untreated or treated with 20 μM MG132 for 8 hours, and then collected. The collected cells were subjected to Western blotting using an anti-NDRG3 antibody and an anti-β-actin antibody (FIG. 7A).
Also, to determine ubiquitination of NDRG3 under a normoxic condition, an in vivo ubiquitination assay was performed. First, a vector for transfection was constructed using shNDRG3 (Sigma-Aldrich, SEQ ID NO: 4) and a lentiviral vector to inhibit expression of the NDRG3. To construct the viral vector, a packing cell line was transfected as described above. Thereafter, HeLa cells were treated with a cell supernatant containing the NDRG3 shRNA-expressing lentiviruses together with 6 μg/ml of polybrene, and kept in a DMEM medium supplemented with 10% FBS. […]

[2] = tested on: NDRG3 protein in MCF-7 cells; assay: NDRG3 protein expression after inhibition of glycolysis, MCF-7 cells; format: cell-based; conditions: varying concentration, 24 hours, hypoxic condition (1% O2)
Procedure: Additionally, to check an effect of inhibition of glycolysis on expression of the NDRG3 protein, MCF-7 cells were treated with a varying concentration of 2-deoxyglucose (2-DG) inhibiting the glycolysis, statically cultured for 24 hours under a hypoxic condition (1% O2), as described in Example 5-2, and then collected and lysed, as described in Example 3. Thereafter, the MCF-7 cells were subjected to Western blotting using anti-NDRG3 and anti-β-actin antibodies (FIG. 15D).

[3] = tested on: NDRG3 protein in MCF-7 cells; assay: NDRG3 protein expression after PHD2 inhibition, Western blotting, MCF-7 cells; format: cell-based; conditions: varying concentration, 24 hours, normoxic condition (21% O2)
Procedure: (§1) Also, to determine the functional relationship between PHD2 and NDRG3, MCF-7 cells (FIG. 4B) or HeLa cells (FIG. 4C) were treated with a varying concentration of desferrioxamine (DFX), which was a PHD2 inhibitor, for 24 hours under a normoxic condition (21% O2), and then lysed, as described in Example 3. The cell lysate was subjected to Western blotting using anti-NDRG3, anti-HIF-1α, and anti-β-actin (FIGS. 4B and 4C).

[4] = tested on: NDRG3 protein in HeLa cells; assay: NDRG3 protein expression after PHD2 inhibition, Western blotting, HeLa cells; format: cell-based; conditions: varying concentration, 24 hours, normoxic condition (21% O2)
Procedure: as §1

[5] = tested on: NDRG3 (N66D) variant in Huh-1 cells; assay: NDRG3 variant accumulation after inhibition of lactate generation, NDRG3 (N66D)-overexpressing Huh-1 cells; format: cell-based; conditions: ectopic NDRG3 (N66D) variant overexpressed, 40 mM, light hypoxic condition
Procedure: (§2) Also, to check an effect of the inhibition of the lactate generation on expression of the ectopic variant NDRG3 (N66D) protein under a sustained hypoxic condition, Huh-1 cells and the NDRG3 (N66D) variant-overexpressing Huh-1 cells were untreated or treated with 40 mM sodium oxamate, statically cultured by time under a light hypoxic condition, and then collected and lysed, as described in Example 3. Thereafter, the cell lysate was subjected to Western blotting using anti-NDRG3 and anti-β-actin antibodies (FIG. 17E).

Huh-1 cells = assay: MTT assay of cell growth, Huh-1 cells; format: cell-based; conditions: varying concentration, light hypoxic condition (3% O2)
Procedure: (§3) Specifically, to check the cell growth in response to the NDRG3 deletion, an MTT assay was performed. First, the NDRG3-deleted Huh-1 cells prepared by the method disclosed in Example 6-1, and the control Huh-1 cells was seeded at a density of 2,000 cells/well in a 96-well plate, and then cultured at 37° C. in a 5% CO2 incubator under a hypoxic condition (3% O2) over time. Thereafter, the cells were treated with a 1 mg/ml MTT solution diluted with PBS, and reacted for 2 hours. Then, a medium containing the MTT was removed, and the cells were treated with 100 μl of DMSO to dissolve MTT formazan crystals. Subsequently, an optical density of the cell suspension was measured at a wavelength of 570 nm using a spectrophotometer (FIG. 14A).
(§4) Specifically, to check an effect of the ectopic NDRG3 (N66D) variant on the cell growth after inhibition of the lactate generation, Huh-1 cells were transfected with an ectopic variant NDRG3 (N66D) expression vector, as described in Example 4-3. Then, the Huh-1 cells and the NDRG3 (N66D) variant-overexpressing Huh-1 cells were seeded at a density of 1,000 cells/well in a 96-well plate, treated with a varying concentration of sodium oxamate, statically cultured by time under a light hypoxic condition (3% O2). Thereafter, to check the cell growth, an MTT assay was performed, as described in Example 6-3, and plotted in a graph (FIG. 17A).

[6] = tested on: NDRG3 protein in MCF-7 cells; assay: NDRG3 protein accumulation after inhibition of L-lactate generation, MCF-7 cells; format: cell-based; conditions: varying concentration, 24 hours, hypoxic condition (1% O2)
Procedure: Also, to check an effect of inhibition of the L-lactate generation on expression of the NDRG3 protein, MCF-7 cells were treated with a varying concentration of sodium oxamate that was a lactate dehydrogenase A (LDHA) inhibitor, statically cultured for 24 hours under a hypoxic condition (1% O2), as described in Example 5-2, and then collected and lysed, as described in Example 3. Thereafter, the cell lysate was subjected to Western blotting using anti-NDRG3, anti-HIF-1α and anti-β-actin antibodies, as described above, and L-lactate generation was determined, and then plotted in a graph. The values were normalized to the L-lactate standard curve (FIG. 15B).

[7] = tested on: human umbilical vein endothelial cells (HUVEC); assay: Tube forming assay, culture broth of Huh-1 cells; format: cell-based; conditions: control Huh-1 cells, 24 hours, hypoxic condition (1% O2)
Procedure: (§5) Specifically, a tube forming assay was performed to check a change in angiogenesis activity by the NDRG3 deletion. First, the Huh-7 cells (2×10^5 cells/ml) in which the expression of the NDRG3 was inhibited using shNDRG3 according to the method described in Example 4-4, and the control Huh-7 cells were cultured for 24 hours under a hypoxic condition (1% O2), and a culture broth (1 ml) was recovered, and then cultured with human umbilical vein endothelial cells (HUVEC; 1×10^5 cells/ml) for 6 to 12 hours in a 6-well dish previously coated with Matrigel to observe formation of tubes (FIG. 13A).
(§6) Specifically, Huh-1 cells in which the NDRG3 (N66D) variant was overexpressed were prepared, and the control cells and the NDRG3 (N66D) variant-overexpressing Huh-1 cells were untreated or treated with sodium oxamate, statically cultured for 24 hours under a hypoxic condition (1% O2). Thereafter, the cells were collected, as described in Example 6-2, and then subjected to a tube forming assay (FIG. 18).

[8] = tested on: human umbilical vein endothelial cells (HUVEC); assay: Tube forming assay, culture broth of NDRG3 (N66D) variant-overexpressing Huh-1 cells; format: cell-based; conditions: ectopic NDRG3 (N66D) variant overexpressed, 24 hours, hypoxic condition (1% O2)
Procedure: as §5, §6

[9] = tested on: NDRG3 (N66D) variant-overexpressing Huh-1 cells; assay: MTT assay of cell growth, NDRG3 (N66D) variant-overexpressing Huh-1 cells; format: cell-based; conditions: ectopic NDRG3 (N66D) variant overexpressed, light hypoxic condition (3% O2)
Procedure: as §3, §4

[10] = tested on: NDRG3 protein in Huh-1 cells; assay: NDRG3 accumulation after inhibition of lactate generation, Western blotting, Huh-1 cells; format: cell-based; conditions: 40 mM, light hypoxic condition
Procedure: as §2

[11] = target: T1, recombinant GST-NDRG3 (G138W) variant protein (Homo sapiens, UniProt Q9UGV2, G138W); assay: In vitro binding assay with L-[14C]-lactate, NDRG3 (G138W) variant; conditions: 50 μg GST-NDRG3 (G138W) versus GST-NDRG3
T1 construct: made in house; host or cells: E. coli BL21
T1 sequence (Q9UGV2 whole entry G138W): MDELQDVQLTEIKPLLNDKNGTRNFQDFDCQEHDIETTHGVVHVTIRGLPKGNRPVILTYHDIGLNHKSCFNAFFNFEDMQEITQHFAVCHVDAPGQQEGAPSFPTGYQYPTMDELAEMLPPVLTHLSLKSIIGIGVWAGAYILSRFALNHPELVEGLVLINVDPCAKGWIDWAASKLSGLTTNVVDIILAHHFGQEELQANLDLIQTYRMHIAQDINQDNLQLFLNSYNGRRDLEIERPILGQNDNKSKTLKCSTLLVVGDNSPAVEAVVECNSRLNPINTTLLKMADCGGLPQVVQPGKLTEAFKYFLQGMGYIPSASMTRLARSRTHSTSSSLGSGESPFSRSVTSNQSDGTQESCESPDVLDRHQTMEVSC
Procedure: Specifically, to confirm interaction between L-lactate and the NDRG3 protein, a site-directed mutation was performed, as described in Example 4-3, using the pGEX-4T-2-NDRG3, which was cloned by the method disclosed in Example 4-1, as a template, and primers listed in the following Table 4, thereby obtaining a pGEX-4T-2-NDRG3 (G138W) variant construct in which glycine (G) that was an amino acid at position 138 among the L-lactate binding sites of the NDRG3 was substituted with […]. […]
Also, to confirm interaction between L-lactate and the NDRG3 protein, an in vitro binding assay was performed. […] Subsequently, the NDRG3-bound agarose resin was transferred to a scintillation solution containing 2 ml of an LSC-cocktail (PerkinElmer), and ^14C values were measured, and plotted in a graph (Left panel of FIG. 16B). Also, GST, the recombinant GST-NDRG3 protein (50 μg) or the recombinant GST-NDRG3 (G138W) variant protein (50 μg) was reacted with 0.5 μCi of L-[^14C]-lactate (PerkinElmer) at 30° C. for an hour, and ^14C values were then measured in the same manner as described above, and plotted in a graph (Right panel of FIG. 16B).

[12] = target: T2, recombinant human NDRG3-GST (Homo sapiens, UniProt Q9UGV2); assay: In vitro ubiquitination assay of recombinant NDRG3 by PHD2/VHL complex; format: biochemical; conditions: L-lactate pH 7.0, 20 mM
T2 construct: made in house; host or cells: E. coli BL21 (NDRG3-GST); HEK293T immunoprecipitates (PHD2, VHL)
T2 sequence (Q9UGV2 whole entry): as the sequence (Q9UGV2 whole entry G138W) above, with W138G counted along it
Procedure: Further, to check an effect of lactate generation on ubiquitination of the NDRG3, an in vitro ubiquitination assay was performed. First, HEK293T cells were transfected with the Flag-tagged PHD2 and HA-tagged VHL variants, as described in Example 3, collected, and then lysed. Thereafter, the protein lysate (500 μg) was reacted with an anti-HA affinity gel (Sigma) or an anti-Flag affinity gel (Sigma) at 4° C. for a day, and centrifuged to obtain recombinant PHD2 proteins or VHL proteins. Then, the recombinant PHD2-/VHL-binding proteins were untreated or treated with L-lactate (pH 7.0, 20 mM), and then reacted at 37° C. for an hour in 50 μl of a solution including recombinant human NDRG3-GST (4 μg) prepared by the method described in Example 4-1, 500 ng of a ubiquitin-activating enzyme (E1, Upstate), 1 μg of a ubiquitin-conjugating enzyme (E2 (UbcH5a), Upstate), 2.5 μg of ubiquitin-Flag (Sigma), 20 mM HEPES (pH 7.3), 5 mM MgCl2, 1 mM DTT, and 2 mM ATP. Subsequently, the mixture was incubated with a GST-conjugated agarose resin at 4° C. for 4 hours, and the precipitate was washed, and subjected to Western blotting using an anti-Flag antibody, as described in Example 3 (FIG. 15F).

[13] = target: T3, recombinant GST-NDRG3 protein (Homo sapiens, UniProt Q9UGV2); assay: In vitro binding assay with L-[14C]-lactate, wild-type NDRG3; conditions: 50 μg GST-NDRG3 versus GST, 30° C., one hour
T3 construct: made in house; host or cells: E. coli BL21
T3 sequence (Q9UGV2 whole entry): as the sequence (Q9UGV2 whole entry G138W) above, with W138G counted along it
Procedure: Also, to confirm interaction between L-lactate and the NDRG3 protein, an in vitro binding assay was performed. GST or the recombinant GST-NDRG3 protein (50 μg) was reacted with 0.5 μCi of unlabeled L-lactate (pH 7.0, Sigma) and L-[^14C]-lactate (PerkinElmer) at 30° C. for an hour. Thereafter, a GST-conjugated agarose resin was added thereto, and the resulting mixture was reacted for 4 hours. Then, a resin to which the NDRG3-GST protein was bound was separated from the reaction mixture, and impurities were removed using PBS. Subsequently, the NDRG3-bound agarose resin was transferred to a scintillation solution containing 2 ml of an LSC-cocktail (PerkinElmer), and ^14C values were measured, and plotted in a graph (Left panel of FIG. 16B). Also, GST, the recombinant GST-NDRG3 protein (50 μg) or the recombinant GST-NDRG3 (G138W) variant protein (50 μg) was reacted with 0.5 μCi of L-[^14C]-lactate (PerkinElmer) at 30° C. for an hour, and ^14C values were then measured in the same manner as described above, and plotted in a graph (Right panel of FIG. 16B).

## CC(C)C[C@@H](C=O)NC(=O)[C@H](CC(C)C)NC(=O)[C@H](CC(C)C)NC(=O)OCc1ccccc1 [MG132] (Cbz-Leu-Leu-Leu-aldehyde)
[1]
  ubiquitination of NDRG3 protein: actively ubiquitinated

## O=CC[C@@H](O)[C@H](O)[C@H](O)CO [2-deoxyglucose]
[2]
  expression of NDRG3 protein: reduced

## CC(=O)N(O)CCCCCNC(=O)CCC(=O)N(O)CCCCCNC(=O)CCC(=O)N(O)CCCCCN [DFX, desferrioxamine]
[3]
  expression of NDRG3 protein: increasingly expressed
[4]
  expression of NDRG3 protein: increasingly expressed

## NC(=O)C(=O)[O-].[Na+] [sodium oxamate]
[5]
  accumulation of NDRG3 variant: lasted
Huh-1 cells
  cell growth (MTT): inhibited in a concentration-dependent manner
[6]
  accumulation of NDRG3 protein: inhibited in proportion to the lactate expression
[7]
  angiogenesis (tube formation): inhibited
[8]
  angiogenesis (tube formation): increased again
[9]
  cell growth (MTT): increased
[10]
  accumulation of NDRG3: inhibited

## C[C@H](O)C(=O)O [lactate, L-lactate]
[11]
  lactate-binding affinity of NDRG3 variant protein (14C values): reduced
[12]
  ubiquitination of recombinant NDRG3 protein by PHD2/VHL complex: reduced
[13]
  in vitro binding of recombinant NDRG3 protein to lactate (14C values): increased
